Source: patent publication US10517889B2, “Modulators of SMAD7 expression” (Ionis Pharmaceuticals, Inc., priority 2017, dated 2019)
Strand notation (5' to 3'): a small letter for the sugar, then the base; units joined by * are phosphorothioate-linked, units joined directly phosphodiester-linked; [ ] holds rarer units or linkages, { } end groups; capitals alone tell only the bases. k = constrained ethyl (cEt); [5mC] = 5-methylcytosine; d = 2'-deoxy (DNA)

Each substance was assayed on human SMAD7 mRNA (assay: Antisense inhibition of human SMAD7 mRNA expression in Hep3B cells by 3-10-3 cEt gapmers, 10,000 nM, electroporation (Example 2)). Settings: Hep3B cells, 10,000 nM antisense oligonucleotide, electroporation, approximately 24 hours, RT-PCR primer probe set RTS5062, relative to untreated control cells.
Assay type: cell-based
How it was run: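 qRT-PCR (RTS5062) of SMAD7 mRNA, normalised to RIBOGREEN total RNA, gave percent inhibition relative to untreated controls. Hep3B cells at 20,000 per well received 10,000 nM oligonucleotide by electroporation, with ~24 h treatment.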

Substance	% Inhibition
800029 (k[5mC]*k[5mC]*kT*dG*dA*dA*dT*d[5mC]*dG*dG*dG*d[5mC]*d[5mC]*k[5mC]*kA*k[5mC]; antisense) [compound 800029]	0%
799891 (antisense kA*kT*k[5mC]*dA*dT*dT*dA*dA*dG*d[5mC]*d[5mC]*dA*dA*kT*kT*kT) [compound 799891]	0%
798872 (kT*kA*kG*dT*d[5mC]*dG*dA*dA*dA*dG*d[5mC]*d[5mC]*dT*kT*kG*kA; antisense) [compound 798872]	2%

Same assay, conditions: Hep3B cells, electroporation with 10,000 nM antisense oligonucleotide, approximately 24 hours, SMAD7 mRNA by RT-PCR (RTS5062), relative to untreated control cells

Substance	% Inhibition
830087 (kT*kT*kT*dT*dA*d[5mC]*dA*dG*dG*dA*dT*dA*d[5mC]*kA*k[5mC]*kT; antisense) [compound 830087]	35%
800001 (k[5mC]*kA*kA*dG*dA*dT*dT*d[5mC]*d[5mC]*dA*dT*dT*dT*kA*kG*kG; antisense) [compound 800001]	2%
799948 (antisense kA*kT*kA*dT*dT*dG*d[5mC]*d[5mC]*dT*dG*dG*dT*dG*kT*kG*kA) [compound 799948]	48%
830015 (antisense kG*k[5mC]*kT*dG*dG*dT*dG*d[5mC]*d[5mC]*dA*dG*dT*d[5mC]*kT*k[5mC]*kA) [compound 830015]	56%
798844 (kA*k[5mC]*k[5mC]*dT*dT*d[5mC]*dT*dG*d[5mC]*dA*d[5mC]*d[5mC]*dA*kG*k[5mC]*kT; antisense) [compound 798844]	30%
798771 (k[5mC]*k[5mC]*kG*dA*dG*dG*dA*dA*dT*dG*d[5mC]*d[5mC]*dT*kG*kA*kG; antisense) [compound 798771]	62%
790497 (kG*kT*kT*d[5mC]*dG*d[5mC]*dA*dG*dA*dG*dT*d[5mC]*dG*kG*k[5mC]*kT; antisense) [compound 790497]	23%
799981 (kA*k[5mC]*k[5mC]*dA*dA*d[5mC]*dG*dG*dT*dT*dG*d[5mC]*d[5mC]*kT*k[5mC]*kA; antisense) [compound 799981]	14%
800040 (k[5mC]*kG*k[5mC]*d[5mC]*dA*dG*d[5mC]*dA*dA*dT*dG*dT*dG*k[5mC]*kT*kG; antisense) [compound 800040]	15%
830061 (k[5mC]*kT*kA*d[5mC]*d[5mC]*dA*d[5mC]*d[5mC]*d[5mC]*d[5mC]*dT*dG*dT*kG*kA*kA; antisense) [compound 830061]	4%
830195 (antisense kA*kA*k[5mC]*d[5mC]*dT*dT*dT*dT*d[5mC]*d[5mC]*dG*dG*dT*kA*kT*kT) [compound 830195]	35%
798848 (kG*kA*kT*dT*dT*dT*dG*d[5mC]*dT*d[5mC]*d[5mC]*dG*d[5mC]*kA*k[5mC]*k[5mC]; antisense) [compound 798848]	40%
799949 (antisense kA*k[5mC]*kT*dG*dG*d[5mC]*d[5mC]*dG*dA*dA*dG*dT*dG*k[5mC]*kA*kG) [compound 799949]	10%
799887 (antisense k[5mC]*kA*kG*dG*dA*d[5mC]*dA*dG*dT*dT*dT*dT*dT*k[5mC]*k[5mC]*k[5mC]) [compound 799887]	29%
798920 (kG*k[5mC]*k[5mC]*dT*dG*d[5mC]*dT*d[5mC]*dA*dG*d[5mC]*dT*d[5mC]*kA*k[5mC]*kG; antisense) [compound 798920]	58%

Same assay, conditions: Hep3B cells, electroporation with 10,000 nM antisense oligonucleotide, approximately 24 hours, primer probe set RTS5062, relative to untreated control cells

Substance	% inhibition of SMAD7 mRNA expression	% Inhibition
772559 (antisense kA*kG*k[5mC]*dG*dA*dG*dT*dA*dG*dG*dA*d[5mC]*dG*kA*kG*kG) [compound 772559]	14%	
798656 (k[5mC]*kG*k[5mC]*dG*dG*d[5mC]*d[5mC]*d[5mC]*dG*d[5mC]*dG*d[5mC]*d[5mC]*k[5mC]*kT*kG; antisense) [compound 798656]	10%	
772689 (kG*kT*kT*d[5mC]*dA*dT*dT*dT*dA*dA*dA*d[5mC]*d[5mC]*kT*kT*kT; antisense) [compound 772689]	26%	
799237 (kA*k[5mC]*kA*dT*dA*dA*dA*d[5mC]*dT*d[5mC]*d[5mC]*dT*dT*kT*kA*kG; antisense) [compound 799237]		9%
799079 (antisense kG*kA*kG*dA*dT*d[5mC]*d[5mC]*dA*dG*dG*dA*dG*d[5mC]*kA*kG*kA) [compound 799079]		46%
798788 (kT*k[5mC]*kT*dG*dG*dA*dG*dT*dA*dA*dG*dG*dA*kG*kG*kG; antisense) [compound 798788]	31%	
799495 (antisense k[5mC]*kT*kA*dA*d[5mC]*dA*dG*dG*dA*dA*dT*dA*dT*kA*k[5mC]*kA) [compound 799495]	25%	
799233 (k[5mC]*kA*kT*dT*d[5mC]*dA*dG*d[5mC]*dT*dA*dG*dG*dT*kG*kA*kT; antisense) [compound 799233]	28%	

Same assay, conditions: Hep3B cells, electroporation, 10,000 nM antisense oligonucleotide, approximately 24 hours, RTS5062, relative to untreated control cells

Substance	% inhibition of SMAD7 mRNA expression
799818 (antisense k[5mC]*kA*k[5mC]*dT*dG*dA*dT*dA*dA*d[5mC]*dT*dA*dA*k[5mC]*kT*kT) [compound 799818]	24%
799521 (antisense kT*kA*kA*dA*dG*dA*d[5mC]*dA*dG*dG*dT*dT*dT*k[5mC]*k[5mC]*k[5mC]) [compound 799521]	57%
799504 (antisense kA*kG*kG*dA*dA*dA*dG*dG*dT*dG*d[5mC]*dT*dG*k[5mC]*k[5mC]*k[5mC]) [compound 799504]	15%
799287 (antisense kT*k[5mC]*kT*dG*d[5mC]*dT*d[5mC]*dA*dG*dG*d[5mC]*dT*dT*k[5mC]*kA*k[5mC]) [compound 799287]	15%
799285 (antisense kG*kG*k[5mC]*dT*dT*d[5mC]*dA*d[5mC]*dT*dG*d[5mC]*d[5mC]*d[5mC]*kA*kT*k[5mC]) [compound 799285]	36%
799281 (antisense k[5mC]*kA*k[5mC]*dA*dG*d[5mC]*dA*d[5mC]*d[5mC]*dT*dT*dG*dT*k[5mC]*kA*k[5mC]) [compound 799281]	25%
799593 (kG*kA*kA*dG*dG*dA*dG*d[5mC]*dT*d[5mC]*dA*dA*dA*k[5mC]*kT*kT; antisense) [compound 799593]	0%

Same assay, conditions: SMAD7 mRNA, Hep3B cells, 10,000 nM antisense oligonucleotide, electroporation, approximately 24 hours, primer probe set RTS5062, relative to untreated control cells

Substance	% Inhibition
800999 (antisense k[5mC]*kA*kT*dT*d[5mC]*dA*dT*dT*dA*dA*dG*d[5mC]*d[5mC]*k[5mC]*kG*k[5mC]) [compound 800999]	54%
829739 (antisense kT*kG*k[5mC]*dT*dA*dA*dG*dG*dA*dG*d[5mC]*dG*dA*kA*k[5mC]*kA) [compound 829739]	44%

Same assay, conditions: SMAD7 mRNA, Hep3B cells, electroporation with 10,000 nM antisense oligonucleotide, approximately 24 hours, primer probe set RTS5062, relative to untreated control cells

Substance	% Inhibition
829979 (kT*kG*kA*dT*dA*dT*dT*dT*dA*dG*d[5mC]*dT*dG*kT*k[5mC]*kA; antisense) [compound 829979]	49%
829901 (antisense kA*kG*k[5mC]*dA*d[5mC]*dG*dG*dG*d[5mC]*dA*dG*d[5mC]*dT*kG*k[5mC]*kT) [compound 829901]	10%
829863 (antisense kA*k[5mC]*kT*dG*d[5mC]*dT*dG*d[5mC]*dG*dG*dT*dT*dG*kT*kA*k[5mC]) [compound 829863]	31%
829798 (kG*kG*kG*dT*dT*dG*dA*dT*d[5mC]*dT*dT*d[5mC]*d[5mC]*k[5mC]*kG*kT; antisense) [compound 829798]	26%
